{
  "source": "patent US20250270213A1",
  "about": "“PI3Ka INHIBITORS” (Synnovation Therapeutics, Inc., priority 2022, published 2025)",
  "data": [
    {"system": "T47D (PIK3CA H1047R) cells", "experiment": "pS473 AKT assay with 2.5% FBS, T47D cells", "format": "cell-based", "conditions": "Homo sapiens, pSer473 AKT, DMEM with 2.5% FBS, 2 h treatment, read-out: T47D_IC50", "method": "Example B. pS473 AKT Assay Protocol with 2.5% FBS\nT47D (PIK3CA H1047R) cells were cultured using 10-cm petri dishes with recommended medium plus 10% fetal bovine serum. One day before the assay, cells were seeded in 96-well plates. After overnight incubation, the medium was changed to DMEM with 2.5% fetal bovine serum (FBS) and the cells were treated with different concentrations of the compounds for 2 h. Cells were then fixed using 4% paraformaldehyde at room temperature for 20 min. Aspirate 4% paraformaldehyde, and wash cells using 1× regular phosphate buffered saline 3 times, 5 min each. Aspirate any residual phosphate buffered saline and block cells using 10% goat serum containing 1% bovine serum albumin and 0.3% Triton X-100 at room temperature for 1 h. Without any additional washing, primary antibodies (rabbit anti-pSer473 AKT) were diluted using blocking buffer and added at a final volume of 50 microliter per well. Keep assay plates with primary antibodies overnight at 4° C. Wash cells using 1× regular phosphate buffered saline 3 times, 5 min each. After the final wash, incubate cells with horseradish peroxidase-conjugated secondary antibodies (goat Anti-rabbit IgG) diluted using the same blocking buffer at room temperature for 1 h. Wash cells thoroughly using 1× regular phosphate buffered saline 3 times, 5 min each. Aspirate any residual phosphate buffered saline. Add Super-Signal ELISA Pico Chemiluminescent Substrate at a final volume of 100 microliter per well. Read plates on i3x Multi-Mode Microplate Reader and calculate IC50 values using GraphPad Prism software.", "units": {"IC50": "µM"}, "values": [
      {"compound": "Cc1cc(C(C)Nc2ccc(Cl)nc2-c2noc(=O)[nH]2)c2c(c1)c(=O)n(C)c1c2cnn1C1CCOC1", "note": "(centres unmarked) [Compound 66, 3-(6-Chloro-3-((1-(4,7-dimethyl-5-oxo-3-(tetrahydrofuran-3-yl)-4,5-dihydro-3H-pyrazolo[3,4-c]isoquinolin-9-yl)ethyl)amino)pyridin-2-yl)-1,2,4-oxadiazol-5(4H)-one]", "IC50": "< 1"},
      {"compound": "COCCn1ncc2c3c(C(C)Nc4ccc(Cl)nc4-c4noc(=O)[nH]4)cc(C)cc3c(=O)n(C)c21", "note": "(centres unmarked) [Compound 67, 3-(6-Chloro-3-((1-(3-(2-methoxyethyl)-4,7-dimethyl-5-oxo-4,5-dihydro-3H-pyrazolo[3,4-c]isoquinolin-9-yl)ethyl)amino)pyridin-2-yl)-1,2,4-oxadiazol-5(4H)-one]", "IC50": "< 1"},
      {"compound": "Cc1cc(C(C)Nc2ccc(Cl)nc2-c2noc(=O)[nH]2)c2c(c1)c(=O)n(C)c1c2cnn1CC1CC1", "note": "(centres unmarked) [Compound 68, 3-(6-Chloro-3-((1-(3-(cyclopropylmethyl)-4,7-dimethyl-5-oxo-4,5-dihydro-3H-pyrazolo[3,4-c]isoquinolin-9-yl)ethyl)amino)pyridin-2-yl)-1,2,4-oxadiazol-5(4H)-one]", "IC50": "< 1"},
      {"compound": "CCn1ncc2c3c(C(C)Nc4ccc(Cl)nc4-c4noc(=O)[nH]4)cc(C(F)(F)F)cc3c(=O)n(C)c21", "note": "(centres unmarked) [Compound 69, 3-(6-Chloro-3-((1-(3-ethyl-4-methyl-5-oxo-7-(trifluoromethyl)-4,5-dihydro-3H-pyrazolo[3,4-c]isoquinolin-9-yl)ethyl)amino)pyridin-2-yl)-1,2,4-oxadiazol-5(4H)-one]", "IC50": "< 1"},
      {"compound": "Cc1cc(C(C)Nc2ccc(Cl)nc2-c2noc(=O)[nH]2)c2c(c1)c(=O)n1c3c2cnn3C(C)CC1", "note": "(centres unmarked) [Compound 70, 3-(6-Chloro-3-((1-(3,8-dimethyl-6-oxo-4,5-dihydro-3H,6H-2,2a,5a-triazaaceanthrylen-10-yl)ethyl)amino)pyridin-2-yl)-1,2,4-oxadiazol-5(4H)-one]", "IC50": "< 1"},
      {"compound": "CCc1ncn2c3c(C(C)Nc4ccc(Cl)nc4-c4noc(=O)[nH]4)cc(C)cc3c(=O)n(C)c12", "note": "(centres unmarked) [Compound 71, 3-(6-Chloro-3-((1-(3-ethyl-4,7-dimethyl-5-oxo-4,5-dihydroimidazo[1,5-a]quinazolin-9-yl)ethyl)amino)pyridin-2-yl)-1,2,4-oxadiazol-5(4H)-one]", "IC50": "< 1"},
      {"compound": "CCn1ncc2c3c(C(C)Nc4cccnc4-c4nnn[nH]4)cc(C)cc3c(=O)n(C)c21", "note": "(centres unmarked) [Compound 72, 9-(1-((2-(1H-Tetrazol-5-yl)pyridin-3-yl)amino)ethyl)-3-ethyl-4,7-dimethyl-3,4-dihydro-5H-pyrazolo[3,4-c]isoquinolin-5-one]", "IC50": "< 1"},
      {"compound": "CCn1ncc2c3c(C(C)Nc4ccc(Cl)nc4C(=O)NC4CCN(C)CC4)cc(C)cc3c(=O)n(C)c21", "note": "(centres unmarked) [Compound 73, 6-Chloro-3-((1-(3-ethyl-4,7-dimethyl-5-oxo-4,5-dihydro-3H-pyrazolo[3,4-c]isoquinolin-9-yl)ethyl)amino)-N-(1-methylpiperidin-4-yl)picolinamide]", "IC50": "< 1"},
      {"compound": "CCn1ncc2c3c(C(C)Nc4ccc(Cl)nc4C(=O)Nc4ccncc4)cc(C)cc3c(=O)n(C)c21", "note": "(centres unmarked) [Compound 74, 6-chloro-3-((1-(3-ethyl-4,7-dimethyl-5-oxo-4,5-dihydro-3H-pyrazolo[3,4-c]isoquinolin-9-yl)ethyl)amino)-N-(pyridin-4-yl)picolinamide]", "IC50": "< 1"},
      {"compound": "CCn1ncc2c3c(C(C)Nc4ccc(Cl)nc4C(=O)NOC)cc(C)cc3c(=O)n(C)c21", "note": "(centres unmarked) [Compound 75, 6-chloro-3-((1-(3-ethyl-4,7-dimethyl-5-oxo-4,5-dihydro-3H-pyrazolo[3,4-c]isoquinolin-9-yl)ethyl)amino)-N-methoxypicolinamide]", "IC50": "< 1"},
      {"compound": "CCn1ncc2c3c(C(CO)Nc4ccc(Cl)nc4-c4ccncc4F)cc(C)cc3c(=O)n(C)c21", "note": "(centres unmarked) [Compound 76, 9-(1-((6-Chloro-3′-fluoro-[2,4′-bipyridin]-3-yl)amino)-2-hydroxyethyl)-3-ethyl-4,7-dimethyl-3,4-dihydro-5H-pyrazolo[3,4-c]isoquinolin-5-one]", "IC50": "< 1"}
    ]}
  ]
}
